Where two headings read alike, the source gives them in different places.
Experiments:
[1] = tested on: A549 cells (human lung carcinoma cells); assay: SRB cytotoxicity assay, A549 cells; format: cell-based
Experimental: (§1) A549 cells (human lung carcinoma cells), MCF-7 cells (human breast cancer cells), HeLa cells (human cervical cancer cells), HepG2 cells (human hepatocellular carcinoma cells), and HUVEC cells (human umbilical vein endothelial cells) were kindly provided by WeiFang Caleb Pharmaceuticals, Inc. A549 cells were cultured in Ham's F12K medium containing 10% fetal bovine serum, 2 mM L-glutamine, and 1.5 g/L sodium bicarbonate; MCF-7 cells were cultured on cell culture flask using RPMI 1640 medium with 2 mM L-glutamine adjusted to contain 1.5 g/L sodium bicarbonate, 4.5 g/L glucose, 10 mM HEPES, 1.0 mM sodium pyruvate, and 10% fetal bovine serum. Hela cells were cultured on Cell culture flask using 2 mM L-glutamine adjusted to contain 1.5 g/L sodium bicarbonate, 4.5 g/L glucose, 10 mM HEPES, and 1.0 mM sodium pyruvate in RPMI 1640 medium supplemented with 0.5 mg/ml G418 and 10% fetal bovine serum. HepG2 cells were cultured in minimum essential medium (Eagle) with 2 mM L-glutamine, Earle's BSS, 1.5 g/L sodium bicarbonate, 0.1 mM non-essential amino acids, 1.0 mM sodium pyruvate, and 10% fetal bovine serum. HUVEC cells were cultured in M199 medium containing 2 mM L-glutamine adjusted to contain 1.5 g/L sodium bicarbonate, 4.5 g/L glucose, 10 mM HEPES, 1.0 mM sodium pyruvate, ECGS, and 10% fetal bovine serum. All cells were cultured at 37°C in 5% CO2.
(§2) The cell proliferation of adherent cells was determined by sulforhodamine B assay (SRB) (Quan et al., [2009]; Li et al., [2017]). All cells were cultured in culture medium containing 10% fetal bovine serum and have been in the logarithmic growth phase. All cell types were seeded in a 96-well culture plate at a concentration of 1–5 × 10^4 cells per well at 37°C in a 5% CO2 incubator for 24 h. The cells were then exposed to seven drug concentrations of dihomooxacalix[4]arene derivatives for 72 h with each concentration located in three wells. Then, the cells were fixed with trichloroacetic acid (TCA). After washing, SRB working solution was added to the cells to […]. SRB combined with protein was dissolved in Tris base. OD values were measured for each well with a SPECTRA max 190 Cell microplate reader under 540 nm wavelength. According to the OD value, the cell growth inhibition rate was calculated.

[2] = tested on: MCF-7 cells (human breast cancer cells); assay: SRB cytotoxicity assay, MCF-7 cells; format: cell-based; settings: for inhibition at 10 µM: MCF7, 10 μM, 72 h
Experimental: as §1, §2

[3] = tested on: HeLa cells (human cervical cancer cells); assay: SRB cytotoxicity assay, HeLa cells; format: cell-based
Experimental: as §1, §2

[4] = tested on: HepG2 cells (human hepatocellular carcinoma cells); assay: SRB cytotoxicity assay, HepG2 cells; format: cell-based
Experimental: as §1, §2

[5] = tested on: HUVEC cells (human umbilical vein endothelial cells); assay: SRB cytotoxicity assay, HUVEC normal cells; format: cell-based
Experimental: as §1, §2

[6] = 72 h, SRB, read-out: IC50 (μM) A549
[7] = Homo sapiens, HUVEC, 72 h, 10 μM, SRB, toxicity to normal cells
[8] = MCF7, 72 h, SRB, read-out: IC50 (μM) MCF-7
[9] = 72 h, SRB, read-out: IC50 (μM) HeLa
[10] = 72 h, SRB, read-out: IC50 (μM) HepG2

| melting point [°C] | Compound | inhibition at 10 µM ([1]; 72 h, SRB) [%] | IC50 [1, 6] [µM] | inhibition at 10 µM ([2]; SRB) [%] | inhibition at 10 µM ([3]; 72 h, SRB) [%] | inhibition at 10 µM ([4]; 72 h, SRB) [%] | inhibition at 10 µM [5, 7] [%] | IC50 [2, 8] [µM] | IC50 [3, 9] [µM] | IC50 [4, 10] [µM] | % inhibition at 10 μM HUVEC ([5]; 10 μM, 72 h, SRB, toxicity to normal cells) [%] | IC50 ([1]; printed in the % inhibition column of Table 1, read-out: IC50 A549 (positive control)) [µM] | IC50 ([2]; MCF7, printed in the % inhibition column of Table 1, read-out: IC50 MCF-7 (positive control)) [µM] | IC50 ([3]; HeLa, printed in the % inhibition column of Table 1, read-out: IC50 HeLa (positive control)) [µM] | IC50 ([4]; printed in the % inhibition column of Table 1, read-out: IC50 HepG2 (positive control)) [µM] | IC50 ([5]; Homo sapiens, HUVEC, printed in the % inhibition column of Table 1, read-out: IC50 HUVEC (positive control)) [nM] |
| --- | --- | --- | --- | --- | --- | --- | --- | --- | --- | --- | --- | --- | --- | --- | --- | --- |
| 119.5 to 120.8 | CCCCNC(=O)COc1c2cc(C(C)(C)C)cc1Cc1cc(C(C)(C)C)cc(c1O)Cc1cc(C(C)(C)C)cc(c1OCC(=O)NCCCC)Cc1cc(C(C)(C)C)cc(c1O)COC2 [Compound 4K, 7,13,19,25-tetra-tert-butyl-28,30-di-hydroxy-27,29-di-(N-butyl-aminocarbonylmethoxyl)-2,3-dihomo-3-oxacalix[4] arene] | 65 | 4.5 ± 1.4 | 41 | 42 | 6 | 1 | – | – | – | – | – | – | – | – | – |
| 114.6 to 115.9 | CC(C)(C)c1cc2c(O)c(c1)Cc1cc(C(C)(C)C)cc(c1OCC(=O)NCCc1ccccc1)Cc1cc(C(C)(C)C)cc(c1O)Cc1cc(C(C)(C)C)cc(c1OCC(=O)NCCc1ccccc1)COC2 [Compound 4O, 7,13,19,25-tetra-tert-butyl-28,30-di-hydroxy-27,29-di-(N-phenethyl-aminocarbonylmethoxyl)-2,3-dihomo-3-oxacalix [4]arene] | 63 | 12.6 ± 2 | 45 | 60 | 9 | 35 | – | – | – | – | – | – | – | – | – |
| 128.1 to 130.8 | CC(C)CNC(=O)COc1c2cc(C(C)(C)C)cc1Cc1cc(C(C)(C)C)cc(c1O)Cc1cc(C(C)(C)C)cc(c1OCC(=O)NCC(C)C)Cc1cc(C(C)(C)C)cc(c1O)COC2 [Compound 4J, 7,13,19,25-tetra-tert-butyl-28,30-di-hydroxy-27,29-di-(N-isobutyl-aminocarbonylmethoxyl)-2,3-dihomo-3-oxacalix [4]arene] | 54 | 16.9 ± 3.2 | 40 | 35 | 10 | 0 | – | – | – | – | – | – | – | – | – |
| 183.7 to 186.4 | CC(C)(C)c1cc2c(O)c(c1)Cc1cc(C(C)(C)C)cc(c1OCC(=O)NCc1ccccc1)Cc1cc(C(C)(C)C)cc(c1O)Cc1cc(C(C)(C)C)cc(c1OCC(=O)NCc1ccccc1)COC2 [Compound 4N, 7,13,19,25-tetra-tert-butyl-28,30-di-hydroxy-27,29-di-(N-benzyl-aminocarbonylmethoxyl)-2,3-dihomo-3-oxacalix[4] arene] | 64 | 6.8 ± 0.5 | 43 | 49 | 10 | 21 | – | – | – | – | – | – | – | – | – |
| 117.7 to 119.3 | CCCCCNC(=O)COc1c2cc(C(C)(C)C)cc1Cc1cc(C(C)(C)C)cc(c1O)Cc1cc(C(C)(C)C)cc(c1OCC(=O)NCCCCC)Cc1cc(C(C)(C)C)cc(c1O)COC2 [Compound 4L, 7,13,19,25-tetra-tert-butyl-28,30-di-hydroxy-27,29-di-(N-pentyl-aminocarbonylmethoxyl)-2,3-dihomo-3-oxacalix[4] arene] | 66 | 1.7 ± 0.4 | 41 | 49 | 18 | 12 | – | – | – | – | – | – | – | – | – |
| 144.4 to 146.2 | CC(C)(C)c1cc2c(O)c(c1)Cc1cc(C(C)(C)C)cc(c1OCC(=O)NCCO)Cc1cc(C(C)(C)C)cc(c1O)Cc1cc(C(C)(C)C)cc(c1OCC(=O)N(CCO)CCO)COC2 [Compound 4S, 7,13,19,25-tetra-tert-butyl-28,30-di-hydroxy-27-(N,N-bis(2-hydroxyethyl)-aminocarbonylmethoxyl)-29-(N-(2-hydroxyethyl)-aminocarbonylmethoxyl)-2,3-dihomo-3-oxacalix[4]arene] | – | – | – | – | – | – | – | – | – | – | – | – | – | – | – |

The next lines start with the compound.

| Compound | melting point [°C] | inhibition at 10 µM ([1]; 72 h, SRB) [%] | IC50 [1, 6] [µM] | inhibition at 10 µM ([2]; SRB) [%] | inhibition at 10 µM ([3]; 72 h, SRB) [%] | inhibition at 10 µM ([4]; 72 h, SRB) [%] | inhibition at 10 µM [5, 7] [%] | IC50 [2, 8] [µM] | IC50 [3, 9] [µM] | IC50 [4, 10] [µM] | % inhibition at 10 μM HUVEC ([5]; 10 μM, 72 h, SRB, toxicity to normal cells) [%] | IC50 ([1]; printed in the % inhibition column of Table 1, read-out: IC50 A549 (positive control)) [µM] | IC50 ([2]; MCF7, printed in the % inhibition column of Table 1, read-out: IC50 MCF-7 (positive control)) [µM] | IC50 ([3]; HeLa, printed in the % inhibition column of Table 1, read-out: IC50 HeLa (positive control)) [µM] | IC50 ([4]; printed in the % inhibition column of Table 1, read-out: IC50 HepG2 (positive control)) [µM] | IC50 ([5]; Homo sapiens, HUVEC, printed in the % inhibition column of Table 1, read-out: IC50 HUVEC (positive control)) [nM] |
| --- | --- | --- | --- | --- | --- | --- | --- | --- | --- | --- | --- | --- | --- | --- | --- | --- |
| CCNC(=O)COc1c2cc(C(C)(C)C)cc1Cc1cc(C(C)(C)C)cc(c1O)Cc1cc(C(C)(C)C)cc(c1OCC(=O)NCC)Cc1cc(C(C)(C)C)cc(c1O)COC2 [Compound 4H, 7,13,19,25-tetra-tert-butyl-28,30-di-hydroxy-27,29-di-(N-ethyl-aminocarbonylmethoxyl)-2,3-dihomo-3-oxacalix [4]arene] | 138.9 to 141.2 | 31 | – | 37 | 41 | 31 | 6 | – | – | – | – | – | – | – | – | – |
| CC(C)(C)c1cc2c(O)c(c1)Cc1cc(C(C)(C)C)cc(c1OCC(=O)N(CCO)CCO)Cc1cc(C(C)(C)C)cc(c1O)Cc1cc(C(C)(C)C)cc(c1OCC(=O)N(CCO)CCO)COC2 [Compound 4B, 7,13,19,25-tetra-tert-butyl-28,30-di-hydroxy-27,29-di-(N,N-bis(2-hydroxyethyl)-aminocarbonylmethoxyl)-2,3-dihomo−3-oxacalix[4]arene] | 210.7 to 212.5 | 66 | 3.9 ± 0.5 | 73 | 100 | 39 | 23 | 4.4 ± 0.7 | 1.1 ± 0.5 | 3.8 ± 0.3 | – | – | – | – | – | – |
| CC(C)NC(=O)COc1c2cc(C(C)(C)C)cc1Cc1cc(C(C)(C)C)cc(c1O)Cc1cc(C(C)(C)C)cc(c1OCC(=O)NC(C)C)Cc1cc(C(C)(C)C)cc(c1O)COC2 [Compound 4I, 7,13,19,25-tetra-tert-butyl-28,30-di-hydroxy-27,29-di-(N-isopropyl-aminocarbonylmethoxyl)-2,3-dihomo-3-oxa calix[4]arene] | 133.3 to 135.7 | 45 | – | 17 | 44 | 9 | 16 | – | – | – | – | – | – | – | – | – |
| CC(C)(C)c1cc2c(O)c(c1)Cc1cc(C(C)(C)C)cc(c1OCC(=O)NCCO)Cc1cc(C(C)(C)C)cc(c1O)Cc1cc(C(C)(C)C)cc(c1OCC(=O)NC1CCCC1)COC2 [Compound 4Q, 7,13,19,25-tetra-tert-butyl-28,30-di-hydroxy-27-(N-clopentyl-aminocarbonylmethoxyl)-29-(N-(2-hydroxyethyl)-aminocarbonylmethoxyl)-2,3-dihomo-3-oxacalix[4]arene] | 138.3 to 140.5 | – | – | – | – | – | – | – | – | – | – | – | – | – | – | – |
| CC(C)(C)c1cc2c(O)c(c1)Cc1cc(C(C)(C)C)cc(c1OCC(=O)NCCO)Cc1cc(C(C)(C)C)cc(c1O)Cc1cc(C(C)(C)C)cc(c1OCC(=O)NCCO)C2 [CLX-4, 5,11,17,23-tetra-tert-butyl-25,27-bis [N-(2-hydroxyethyl)aminocarbonylmethoxyl] calix[4]arene, reference compound] | – | 93 | 2.8 ± 0.3 | 99 | 92 | 94 | 18 | 2.1 ± 0.4 | 1.9 ± 0.2 | 6.6 ± 0.8 | 16 | – | – | – | – | – |
| CC(C)(C)c1cc2c(O)c(c1)Cc1cc(C(C)(C)C)cc(c1OCC(=O)NCCO)Cc1cc(C(C)(C)C)cc(c1O)Cc1cc(C(C)(C)C)cc(c1OCC(=O)NCCc1ccccc1)COC2 [Compound 4R, 7,13,19,25-tetra-tert-butyl-28,30-di-hydroxy-27-(N-phenethyl-aminocarbonylmethoxyl)-29-(N-(2-hydroxyethyl)-aminocarbonylmethoxyl)-2,3-dihomo-3-oxacalix[4]arene] | 120.7 to 123.3 | – | – | – | – | – | – | – | – | – | – | – | – | – | – | – |
| CC(=O)O[C@H]1C(=O)[C@@]2(C)[C@H]([C@H](OC(=O)c3ccccc3)[C@]3(O)C[C@H](OC(=O)[C@H](O)[C@@H](NC(=O)c4ccccc4)c4ccccc4)C(C)=C1C3(C)C)[C@]1(OC(C)=O)CO[C@@H]1C[C@@H]2O [Paclitaxel, paclitaxel, reference compound] | – | – | – | – | – | – | – | – | – | – | – | 0.00059 | 0.0008 | 0.0027 | 0.005 | 1 |
